Measured values published in PubChem BioAssay (NCI).
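All cell lines were grown in 96-well plates and treated with compound for 48 hours. Here, GI50 denotes the concentration required for 50% inhibition of growth. The concentration for full growth arrest is given as TGI.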

Legend:
Assay in all cases: NCI anticancer screen, dose series, 48 h
NCI-H23 lung = test system: NCI-H23 lung
NCI-H460 lung = test system: NCI-H460 lung
NCI/ADR-RES ovarian = test system: NCI/ADR-RES ovarian
OVCAR-3 ovarian = test system: OVCAR-3 ovarian
OVCAR-4 ovarian = test system: OVCAR-4 ovarian
OVCAR-5 ovarian = test system: OVCAR-5 ovarian
OVCAR-8 ovarian = test system: OVCAR-8 ovarian
PC-3 prostate = test system: PC-3 prostate
RPMI-8226 leukemia = test system: RPMI-8226 leukemia
SF-268 CNS = test system: SF-268 CNS
SF-295 CNS = test system: SF-295 CNS
SF-539 CNS = test system: SF-539 CNS
SK-MEL-2 melanoma = test system: SK-MEL-2 melanoma
SK-MEL-28 melanoma = test system: SK-MEL-28 melanoma
SK-MEL-5 melanoma = test system: SK-MEL-5 melanoma
SK-OV-3 ovarian = test system: SK-OV-3 ovarian
SN12C renal = test system: SN12C renal
SNB-19 CNS = test system: SNB-19 CNS
SNB-75 CNS = test system: SNB-75 CNS
SR leukemia = test system: SR leukemia
SW-620 colon = test system: SW-620 colon
T-47D breast = test system: T-47D breast
TK-10 renal = test system: TK-10 renal
U251 CNS = test system: U251 CNS
UACC-257 melanoma = test system: UACC-257 melanoma
UACC-62 melanoma = test system: UACC-62 melanoma
UO-31 renal = test system: UO-31 renal

Question: With `CCN(CC)CCN1CC(O)=C(c2nc(-c3ccc(Cl)cc3)cs2)C1=N` as the molecule, how does the GI50 (NCI-H23 lung) read?
Answer: 7.39 µM

Question: What about the TGI (NCI-H23 lung) of the same molecule?
Answer: 49.9 µM

Question: What about the GI50 (NCI-H460 lung) of the same molecule?
Answer: 2.04 µM

Question: And the TGI (NCI-H460 lung)?
Answer: 4.29 µM

Question: And the GI50 (NCI/ADR-RES ovarian)?
Answer: 9.12 µM

Question: And the TGI (NCI/ADR-RES ovarian)?
Answer: > 100 µM

Question: And the GI50 (OVCAR-3 ovarian)?
Answer: 4.06 µM

Question: And the TGI (OVCAR-3 ovarian)?
Answer: 20.4 µM

Question: What about the GI50 (OVCAR-4 ovarian) of the same molecule?
Answer: 18.3 µM

Question: And the TGI (OVCAR-4 ovarian)?
Answer: > 100 µM

Question: What about the GI50 (OVCAR-5 ovarian) of the same molecule?
Answer: 6.38 µM

Question: What about the TGI (OVCAR-5 ovarian) of the same molecule?
Answer: 31.3 µM

Question: And the GI50 (OVCAR-8 ovarian)?
Answer: 5.61 µM

Question: What about the TGI (OVCAR-8 ovarian) of the same molecule?
Answer: > 100 µM

Question: And the GI50 (PC-3 prostate)?
Answer: 6.8 µM

Question: And the TGI (PC-3 prostate)?
Answer: > 100 µM

Question: What about the GI50 (RPMI-8226 leukemia) of the same molecule?
Answer: 2 µM

Question: And the TGI (RPMI-8226 leukemia)?
Answer: 5.09 µM

Question: What about the GI50 (SF-268 CNS) of the same molecule?
Answer: 1.87 µM

Question: And the TGI (SF-268 CNS)?
Answer: 3.93 µM

Question: What about the GI50 (SF-295 CNS) of the same molecule?
Answer: 1.8 µM

Question: What about the TGI (SF-295 CNS) of the same molecule?
Answer: 3.49 µM

Question: And the GI50 (SF-539 CNS)?
Answer: 1.55 µM

Question: What about the TGI (SF-539 CNS) of the same molecule?
Answer: 3.11 µM

Question: And the GI50 (SK-MEL-2 melanoma)?
Answer: 16.9 µM

Question: And the TGI (SK-MEL-2 melanoma)?
Answer: > 100 µM

Question: And the GI50 (SK-MEL-28 melanoma)?
Answer: 1.86 µM

Question: What about the TGI (SK-MEL-28 melanoma) of the same molecule?
Answer: 3.49 µM

Question: What about the GI50 (SK-MEL-5 melanoma) of the same molecule?
Answer: 1.63 µM

Question: What about the TGI (SK-MEL-5 melanoma) of the same molecule?
Answer: 3.02 µM

Question: And the GI50 (SK-OV-3 ovarian)?
Answer: 4.76 µM

Question: What about the TGI (SK-OV-3 ovarian) of the same molecule?
Answer: 25.2 µM

Question: And the GI50 (SN12C renal)?
Answer: 5.25 µM

Question: What about the TGI (SN12C renal) of the same molecule?
Answer: > 100 µM

Question: What about the GI50 (SNB-19 CNS) of the same molecule?
Answer: 2.1 µM

Question: What about the TGI (SNB-19 CNS) of the same molecule?
Answer: 4.5 µM

Question: And the GI50 (SNB-75 CNS)?
Answer: 1.6 µM

Question: What about the TGI (SNB-75 CNS) of the same molecule?
Answer: 3.4 µM

Question: And the GI50 (SR leukemia)?
Answer: 1.43 µM

Question: What about the TGI (SR leukemia) of the same molecule?
Answer: 3.7 µM

Question: What about the GI50 (SW-620 colon) of the same molecule?
Answer: 1.91 µM

Question: What about the TGI (SW-620 colon) of the same molecule?
Answer: 3.8 µM

Question: What about the GI50 (T-47D breast) of the same molecule?
Answer: 2.19 µM

Question: What about the TGI (T-47D breast) of the same molecule?
Answer: 5.11 µM

Question: What about the GI50 (TK-10 renal) of the same molecule?
Answer: 2.86 µM

Question: What about the TGI (TK-10 renal) of the same molecule?
Answer: 5.65 µM

Question: What about the GI50 (U251 CNS) of the same molecule?
Answer: 1.68 µM

Question: And the TGI (U251 CNS)?
Answer: 3.17 µM

Question: What about the GI50 (UACC-257 melanoma) of the same molecule?
Answer: 1.82 µM

Question: And the TGI (UACC-257 melanoma)?
Answer: 3.51 µM

Question: What about the GI50 (UACC-62 melanoma) of the same molecule?
Answer: 1.87 µM

Question: And the TGI (UACC-62 melanoma)?
Answer: 3.53 µM

Question: What about the GI50 (UO-31 renal) of the same molecule?
Answer: 3.83 µM

Question: And the TGI (UO-31 renal)?
Answer: 20.2 µM
